Results from patent US20140005417A1, “WATER-INSOLUBLE COLORING COMPOUND, INK, RESIST COMPOSITION FOR COLOR FILTER, AND THERMAL TRANSFER RECORDING SHEET” (CANON KABUSHIKI KAISHA, priority 2011, published 2014).

Tests used:
[1] = Light resistance evaluation of ink image samples (exposure test); settings: ink image sample with L* closest to 60; Weather-Ometer exposure 36 hours, black panel 50° C., chamber 40° C., RH 70%, 340 nm 0.39 W/m^2; less than 10 = good
[2] = physchem; settings: organic solvent or mixture, thermodynamic from solid
[3] = Solubility in water; type: physicochemical
From the text: The water-insoluble coloring compound represented by Formula (1) of the present invention has a high affinity to an organic solvent. In the present invention, the term “water-insoluble” refers to that the solubility in water is less than 1% as mass percentage.

| ΔE (36 h) [1] | SMILES | also measured |
| --- | --- | --- |
| 3.8 | Cc1cc(C)c(NC(=O)c2ccccc2)c(C)c1N=c1ccc2c(-c3ccccc3S(=O)(=O)O)c3ccc(Nc4c(C)cc(C)c(NC(=O)c5ccccc5)c4C)cc3oc-2c1 [Compound (10)] | – |
| 3.1 | CC(=O)Nc1c(C)cc(C)c(N=c2ccc3c(-c4ccccc4S(=O)(=O)O)c4ccc(Nc5c(C)c(NC(C)=O)c(C)c(NC(C)=O)c5C)cc4oc-3c2)c1C [(13)] | – |
| 5.8 | CC(=O)Nc1ccc(C)c(N=c2ccc3c(-c4ccccc4S(=O)(=O)O)c4ccc(Nc5c(C(C)C)ccc(NC(C)=O)c5C(C)C)cc4oc-3c2)c1C [(16)] | – |
| 2.9 | Cc1cc(C)c(NC(=O)C(C)C)c(C)c1N=c1ccc2c(-c3ccccc3S(=O)(=O)O)c3ccc(Nc4c(C)cc(C)c(NC(=O)C(C)C)c4C)cc3oc-2c1 [Compound (8)] | – |
| 3.2 | CCCC(=O)Nc1c(C)cc(C)c(N=c2ccc3c(-c4ccccc4S(=O)(=O)O)c4ccc(Nc5c(C)cc(C)c(NC(=O)CCC)c5C)cc4oc-3c2)c1C [Compound (7)] | – |
| 2.3 | CC(=O)Nc1c(C)c(N=c2ccc3c(-c4ccccc4S(=O)(=O)O)c4ccc(Nc5c(C)c(NC(C)=O)c(C)c(NC(C)=O)c5C)cc4oc-3c2)c(C)c(NC(C)=O)c1C [(11)] | – |
| 3.5 | CCOC(=O)c1ccccc1C(=O)Nc1c(C)cc(C)c(N=c2ccc3c(-c4ccccc4S(=O)(=O)O)c4ccc(Nc5c(C)cc(C)c(NC(=O)c6ccccc6C(=O)OCC)c5C)cc4oc-3c2)c1C [(12)] | – |
| 3.2 | CC(=O)Nc1c(C)cc(C)c(N=c2ccc3c(-c4ccccc4S(=O)(=O)O)c4ccc(Nc5c(C)cc(C)c(NC(C)=O)c5C)cc4oc-3c2)c1C [Compound (5)] | solubility in water [3]: less than 1 % as mass percentage |
| 5.2 | CCc1ccc(NC(C)=O)c(CC)c1N=c1ccc2c(-c3ccccc3S(=O)(=O)O)c3ccc(Nc4c(CC)ccc(NC(C)=O)c4CC)cc3oc-2c1 [(14)] | – |
| 3.9 | CCOc1cc(C)c(N=c2ccc3c(-c4ccccc4S(=O)(=O)O)c4ccc(Nc5c(C)cc(OCC)c(NC(C)=O)c5C)cc4oc-3c2)c(C)c1NC(C)=O [(18)] | – |
| 3.3 | CCC(=O)Nc1c(C)cc(C)c(N=c2ccc3c(-c4ccccc4S(=O)(=O)O)c4ccc(Nc5c(C)cc(C)c(NC(=O)CC)c5C)cc4oc-3c2)c1C [Compound (6)] | – |
| 5.0 | CCc1ccc(NC(C)=O)c(CC)c1Nc1ccc2c(-c3ccccc3S(=O)(=O)O)c3ccc(=Nc4c(C)ccc(NC(C)=O)c4C)cc-3oc2c1 [(15)] | – |

| SMILES | ΔE (36 h) [1] | also measured |
| --- | --- | --- |
| Cc1cc(C)c(NC(=O)c2cccnc2)c(C)c1N=c1ccc2c(-c3ccccc3S(=O)(=O)O)c3ccc(Nc4c(C)cc(C)c(NC(=O)c5cccnc5)c4C)cc3oc-2c1 [(22)] | 5.0 | – |
| CCN(CC)c1ccc2c(c1)Oc1cc(N(CC)CC)ccc1C21OC(=O)c2ccccc21 [(1)] | 15.8 | solubility ([2]; chloroform): > 42.9 mg/mL; solubility ([2]; ethyl acetate): < 42.9 mg/mL; solubility ([2]; methanol): > 42.9 mg/mL; solubility ([2]; toluene): < 42.9 mg/mL |
| Cc1ccc(/N=N/c2c(O)c(C(=O)O)cc3ccccc23)c(S(=O)(=O)O)c1 [(3)] | 1.5 | solubility ([2]; chloroform): < 42.9 mg/mL; solubility ([2]; ethyl acetate): < 42.9 mg/mL; solubility ([2]; methanol): < 42.9 mg/mL; solubility ([2]; toluene): < 42.9 mg/mL |
| CCCCCCCCCCCCCCCCCC(=O)Nc1c(C)cc(C)c(N=c2ccc3c(-c4ccccc4S(=O)(=O)O)c4ccc(Nc5c(C)cc(C)c(NC(=O)CCCCCCCCCCCCCCCCC)c5C)cc4oc-3c2)c1C [(23)] | 3.8 | – |
| C=C(C)C(=O)Nc1c(C)cc(C)c(N=c2ccc3c(-c4ccccc4S(=O)(=O)O)c4ccc(Nc5c(C)cc(C)c(NC(=O)C(=C)C)c5C)cc4oc-3c2)c1C [(21)] | 7.8 | – |
| Nc1c(Oc2ccccc2)cc(O)c2c1C(=O)c1ccccc1C2=O [(2)] | 12.3 | solubility ([2]; chloroform): < 42.9 mg/mL; solubility ([2]; ethyl acetate): < 42.9 mg/mL; solubility ([2]; methanol): < 42.9 mg/mL; solubility ([2]; toluene): < 42.9 mg/mL |
